Values quoted from earlier work in patent US20220152053A1, “METHODS AND COMPOSITIONS FOR TREATING VARIOUS DISORDERS” (Amylyx Pharmaceuticals, Inc., priority 2019, published 2022).
Like-named read-outs stand apart in the source and are kept apart here.

Assays:
[1] = tested on: G93A SOD1 mouse model of ALS; settings: in vivo
[2] = tested on: subjects with urea cycle disorders; settings: for Other (rare) adverse events, frequency: gastrointestinal, hematologic, cardiovascular, renal, psychiatric, skin, miscellaneous
ALS subjects = settings: daily dosages between 9 and 21 grams, 20 weeks
rat = settings: intrarectal instillation, 78 weeks
cancer subjects = settings: intravenous, 250-300 mg/kg/day for 14 days, repeated at 4-week intervals
CD-1 mice = settings: oral, 50, 250, and 1000 mg/kg/day, 2 years
Sprague-Dawley rats = settings: oral, 50, 250, and 1000 mg/kg/day, 2 years, males and females
liver enzyme levels = settings: in vivo
subjects = settings: prior human experience
CYP 2D6 = CYP 2D6 (Homo sapiens, UniProt P10635); settings: at 20 times the intended clinical concentration (Cmax)
CYP 1A2 = target: T1, CYP 1A2 (Homo sapiens, UniProt P05177); settings: at 20 times the intended clinical concentration (Cmax)
T1 sequence (P05177 1-516): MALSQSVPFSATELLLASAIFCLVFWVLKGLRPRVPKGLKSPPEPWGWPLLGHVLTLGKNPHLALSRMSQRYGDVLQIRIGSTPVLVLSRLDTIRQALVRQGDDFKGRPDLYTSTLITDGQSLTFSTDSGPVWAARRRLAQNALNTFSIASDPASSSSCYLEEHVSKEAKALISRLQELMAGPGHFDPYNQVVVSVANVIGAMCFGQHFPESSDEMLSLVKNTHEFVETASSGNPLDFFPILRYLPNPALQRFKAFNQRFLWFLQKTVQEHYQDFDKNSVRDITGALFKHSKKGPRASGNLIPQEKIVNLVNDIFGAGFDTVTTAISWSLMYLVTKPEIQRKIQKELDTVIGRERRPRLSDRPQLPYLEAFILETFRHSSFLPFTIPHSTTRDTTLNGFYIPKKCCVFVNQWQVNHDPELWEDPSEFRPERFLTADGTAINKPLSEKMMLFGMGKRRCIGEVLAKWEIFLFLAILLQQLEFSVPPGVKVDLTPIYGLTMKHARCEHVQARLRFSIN

Sequence of CYP 2D6 (P10635 whole entry): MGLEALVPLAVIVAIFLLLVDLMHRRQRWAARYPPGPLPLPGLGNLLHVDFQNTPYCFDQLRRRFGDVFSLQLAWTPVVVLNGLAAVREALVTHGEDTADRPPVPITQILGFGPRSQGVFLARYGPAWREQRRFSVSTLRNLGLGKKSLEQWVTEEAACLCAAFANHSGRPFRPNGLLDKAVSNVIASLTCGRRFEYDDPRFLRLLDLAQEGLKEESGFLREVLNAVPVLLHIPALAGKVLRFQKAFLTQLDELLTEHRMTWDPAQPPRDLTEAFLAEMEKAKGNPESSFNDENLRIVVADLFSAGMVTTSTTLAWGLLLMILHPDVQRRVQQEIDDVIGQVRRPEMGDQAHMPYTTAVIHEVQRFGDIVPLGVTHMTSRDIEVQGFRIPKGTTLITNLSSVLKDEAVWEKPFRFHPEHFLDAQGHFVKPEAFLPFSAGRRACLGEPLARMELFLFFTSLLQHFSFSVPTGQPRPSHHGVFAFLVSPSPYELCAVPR

O=C(O)CCCc1ccccc1 [phenylbutyrate, sodium phenylbutyrate]
survival [1]: increase survival
Decreased appetite ([2]; all subjects): 4%
Other (rare) adverse events, frequency [2]: ≤ 2%
Other (rare) adverse events, frequency ([2]; listed as PB): < 2%
Body odor ([2]; human, in vivo): 3%
bad taste or taste aversion ([2]; human, in vivo): 3%
amenorrhea/menstrual dysfunction (irregular menstrual cycles) ([2]; menstruating subjects): 23%
safety and tolerability (ALS subjects): generally safe and tolerable

C[C@H](CCC(=O)NCCS(=O)(=O)O)[C@H]1CC[C@H]2[C@@H]3CC[C@@H]4C[C@H](O)CC[C@]4(C)[C@H]3C[C@H](O)[C@]12C [tauro-deoxycholic acid]
effect when co-administered with a carcinogenic agent (rat): tumor-promoting effect
tumor production, bile acid alone (rat): did not produce any tumors

O=C(O)Cc1ccccc1 [phenylacetate, phenylacetic acid]
Neurotoxicity (cancer subjects): Neurotoxicity was reported

C[C@H](CCC(=O)O)[C@H]1CC[C@H]2[C@@H]3[C@@H](O)C[C@@H]4C[C@H](O)CC[C@]4(C)[C@H]3CC[C@]12C [Ursodeoxycholic acid]
tumorigenicity (CD-1 mice): not tumorigenic
tumorigenicity (Sprague-Dawley rats): statistically significant dose-related increased incidences of pheochromocytomas of adrenal medulla
association with liver damage (liver enzyme levels): has not been associated with liver damage

C[C@H](CCC(=O)NCCS(=O)(=O)O)[C@H]1CC[C@H]2[C@@H]3[C@@H](O)C[C@@H]4C[C@H](O)CC[C@]4(C)[C@H]3CC[C@]12C [TURSO, taurursodiol]
frequency of adverse reactions (abdominal discomfort, abdominal pain, diarrhea, nausea, pruritus, rash) (subjects): ≥ 1%
frequency of adverse reactions (abdominal discomfort, abdominal pain, diarrhea, nausea, pruritus, rash) (subjects; listed as TUDCA): > 1%

Phenylacetylacetate
inhibition of CYP 2D6 (CYP 2D6): inhibitory
inhibition of CYP 1A2 (CYP 1A2): inhibitory
